Assay results published in patent US20170050957A1, “4-AMINO-6-(HETEROCYCLIC)PICOLINATES AND 6-AMINO-2-(HETEROCYCLIC)PYRIMIDINE-4-CARBOXYLATES AND THEIR USE AS HERBICIDES” (Dow AgroSciences LLC, priority 2013, published 2017).
Like-named read-outs stand apart in the source and are kept apart here.

Experiments:
[1] = system: Key Broadleaf Weed and Crop Species; experiment: Post-emergent Test II herbicidal activity (Table 15); type: in vivo; details: post-emergence, 336 h, 14 d; for pest or weed control at 35 g/ha: 35 g ai/ha; for pest or weed control at 70 g/ha: 70 g ai/ha; for pest or weed control at 140 g/ha: 140 g ai/ha
How it was run: (§1)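 Greenhouse-grown seedlings at first/second true leaf receive a track spray at 187 L/ha, using a highest rate plus two-fold serial dilutions down to 1/16×. Watering is by subirrigation to avoid wash-off. Percent injury (0-100) is judged by eye at 14 d against untreated plants.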

[2] = system: Key Grass and Sedge Weeds as well as Grass Crops; experiment: Post-emergent Test II herbicidal activity (Table 16); type: in vivo; details: post-emergence, 336 h, 14 d; for pest or weed control at 35 g/ha: 35 g ai/ha; for pest or weed control at 70 g/ha: 70 g ai/ha; for pest or weed control at 140 g/ha: 140 g ai/ha
How it was run: as §1

[3] = Abutilon theophrasti, velvetleaf (Abutilon theophrasti), read-out: Visual Growth Reduction (%) 14 Days After Application, ABUTH
[4] = Amaranthus retroflexus, redroot pigweed (Amaranthus retroflexus), read-out: Visual Growth Reduction (%) 14 Days After Application, AMARE
[5] = Brassica napus, oilseed rape, canola (Brassica napus), read-out: Visual Growth Reduction (%) 14 Days After Application, BRSNN
[6] = Chenopodium album, lambsquarters (Chenopodium album), read-out: Visual Growth Reduction (%) 14 Days After Application, CHEAL
[7] = Euphorbia heterophylla, wild poinsettia (Euphorbia heterophylla), read-out: Visual Growth Reduction (%) 14 Days After Application, EPHHL
[8] = Helianthus annuus, sunflower (Helianthus annuus), read-out: Visual Growth Reduction (%) 14 Days After Application, HELAN
[9] = Cyperus esculentus, yellow nutsedge (Cyperus esculentus), read-out: Visual Growth Reduction (%) 14 Days After Application, CYPES
[10] = Echinochloa crus-galli, barnyardgrass (Echinochloa crus-galli), read-out: Visual Growth Reduction (%) 14 Days After Application, ECHCG
[11] = Oryza sativa, rice (Oryza sativa), read-out: Visual Growth Reduction (%) 14 Days After Application, ORYSA
[12] = Setaria faberi, giant foxtail (Setaria faberi), read-out: Visual Growth Reduction (%) 14 Days After Application, SETFA
[13] = Triticum aestivum, wheat, spring (Triticum aestivum), read-out: Visual Growth Reduction (%) 14 Days After Application, TRZAS
[14] = Zea mays, maize, corn (Zea mays), read-out: Visual Growth Reduction (%) 14 Days After Application, ZEAMX

| SMILES | pest or weed control at 35 g/ha [1, 3] [%] | pest or weed control at 70 g/ha [1, 3] [%] | pest or weed control at 140 g/ha [1, 3] [%] | pest or weed control at 35 g/ha [1, 4] [%] | pest or weed control at 70 g/ha [1, 4] [%] | pest or weed control at 140 g/ha [1, 4] [%] | pest or weed control at 35 g/ha [1, 5] [%] | pest or weed control at 70 g/ha [1, 5] [%] | pest or weed control at 140 g/ha [1, 5] [%] | pest or weed control at 35 g/ha [1, 6] [%] | pest or weed control at 70 g/ha [1, 6] [%] | pest or weed control at 140 g/ha [1, 6] [%] | pest or weed control at 35 g/ha [1, 7] [%] | pest or weed control at 70 g/ha [1, 7] [%] | pest or weed control at 140 g/ha [1, 7] [%] | pest or weed control at 35 g/ha [1, 8] [%] | pest or weed control at 70 g/ha [1, 8] [%] | pest or weed control at 140 g/ha [1, 8] [%] | pest or weed control at 35 g/ha [2, 9] [%] | pest or weed control at 70 g/ha [2, 9] [%] | also measured |
| --- | --- | --- | --- | --- | --- | --- | --- | --- | --- | --- | --- | --- | --- | --- | --- | --- | --- | --- | --- | --- | --- |
| COC(=O)c1nc(-c2ccc3cc[nH]c3c2)c(Cl)c(N)c1Cl [Compound 1.05] | 45 to 59 | 95 to 100 | 85 to 94 | 60 to 74 | 75 to 84 | 95 to 100 | 30 to 44 | 45 to 59 | 60 to 74 | 85 to 94 | 95 to 100 | 95 to 100 | 30 to 44 | 30 to 44 | 45 to 59 | 95 to 100 | 95 to 100 | 95 to 100 | 0 to 29 | 0 to 29 | pest or weed control at 140 g/ha [2, 9]: 0 to 29%; pest or weed control at 35 g/ha [2, 10]: 0 to 29%; pest or weed control at 70 g/ha [2, 10]: 0 to 29%; pest or weed control at 140 g/ha [2, 10]: 60 to 74%; pest or weed control at 35 g/ha [2, 11]: 0 to 29%; pest or weed control at 70 g/ha [2, 11]: 0 to 29%; pest or weed control at 140 g/ha [2, 11]: 0 to 29%; pest or weed control at 35 g/ha [2, 12]: 30 to 44%; pest or weed control at 70 g/ha [2, 12]: 45 to 59%; pest or weed control at 140 g/ha [2, 12]: 60 to 74%; pest or weed control at 35 g/ha [2, 13]: 0 to 29%; pest or weed control at 70 g/ha [2, 13]: 30 to 44%; pest or weed control at 140 g/ha [2, 13]: 45 to 59%; pest or weed control at 35 g/ha [2, 14]: 0 to 29%; pest or weed control at 70 g/ha [2, 14]: 30 to 44%; pest or weed control at 140 g/ha [2, 14]: 45 to 59%; melting point: 174 to 179 °C |
| COC(=O)c1nc(-c2ccc3cc[nH]c3c2)c(F)c(N)c1Cl [Compound 1.08] | 85 to 94 | 95 to 100 | 95 to 100 | 95 to 100 | 95 to 100 | 95 to 100 | 45 to 59 | 75 to 84 | 85 to 94 | 95 to 100 | 95 to 100 | 95 to 100 | 95 to 100 | 95 to 100 | 95 to 100 | 85 to 94 | 95 to 100 | 95 to 100 | 0 to 29 | 0 to 29 | pest or weed control at 140 g/ha [2, 9]: 0 to 29%; pest or weed control at 35 g/ha [2, 10]: 85 to 94%; pest or weed control at 70 g/ha [2, 10]: 95 to 100%; pest or weed control at 140 g/ha [2, 10]: 95 to 100%; pest or weed control at 35 g/ha [2, 11]: 0 to 29%; pest or weed control at 70 g/ha [2, 11]: 0 to 29%; pest or weed control at 140 g/ha [2, 11]: 0 to 29%; pest or weed control at 35 g/ha [2, 12]: 0 to 29%; pest or weed control at 70 g/ha [2, 12]: 60 to 74%; pest or weed control at 140 g/ha [2, 12]: 75 to 84%; pest or weed control at 35 g/ha [2, 13]: 0 to 29%; pest or weed control at 70 g/ha [2, 13]: 0 to 29%; pest or weed control at 140 g/ha [2, 13]: 30 to 44%; pest or weed control at 35 g/ha [2, 14]: 45 to 59%; pest or weed control at 70 g/ha [2, 14]: 75 to 84%; pest or weed control at 140 g/ha [2, 14]: 85 to 94%; melting point: 66 to 69 °C |
| Nc1c(F)c(-c2ccc3cc[nH]c3c2)nc(C(=O)O)c1Cl [Compound 1.09] | 95 to 100 | 95 to 100 | 95 to 100 | 95 to 100 | 95 to 100 | 95 to 100 | 95 to 100 | 95 to 100 | 95 to 100 | 95 to 100 | 95 to 100 | 95 to 100 | 85 to 94 | 95 to 100 | 95 to 100 | 95 to 100 | 95 to 100 | 95 to 100 | 30 to 44 | 75 to 84 | pest or weed control at 140 g/ha [2, 9]: 85 to 94%; pest or weed control at 35 g/ha [2, 10]: 95 to 100%; pest or weed control at 70 g/ha [2, 10]: 95 to 100%; pest or weed control at 140 g/ha [2, 10]: 95 to 100%; pest or weed control at 35 g/ha [2, 11]: 0 to 29%; pest or weed control at 70 g/ha [2, 11]: 0 to 29%; pest or weed control at 140 g/ha [2, 11]: 0 to 29%; pest or weed control at 35 g/ha [2, 12]: 85 to 94%; pest or weed control at 70 g/ha [2, 12]: 85 to 94%; pest or weed control at 140 g/ha [2, 12]: 85 to 94%; pest or weed control at 35 g/ha [2, 13]: 0 to 29%; pest or weed control at 70 g/ha [2, 13]: 0 to 29%; pest or weed control at 140 g/ha [2, 13]: 0 to 29%; pest or weed control at 35 g/ha [2, 14]: 60 to 74%; pest or weed control at 70 g/ha [2, 14]: 75 to 84%; pest or weed control at 140 g/ha [2, 14]: 75 to 84%; melting point: 138 to 140 °C |
